# The supplement of paper PMC4977894
# ± gives the standard deviation of the averaged measurements.
# Columns and labels:
# [1] = tested on: Homo sapiens (human subject panel, olfactory perception); test: perceived odor familiarity rating (rating 0-100); higher = more familiar
# Outline: (§1)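 For each molecule, 1 mL diluted in paraffin oil was sniffed at high and low concentrations by 55 healthy human subjects aged 18–50, with the six lowest performers excluded. Presentation order was randomized over ten visits of 100 stimuli. Subjects who reported smelling a stimulus moved a computerized slider from its starting position of 50, and positions were converted to a 0–100 scale. The familiarity, intensity and pleasantness ratings are averaged across subjects.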
# [2] = tested on: Homo sapiens (human subject panel, olfactory perception); test: perceived odor pleasantness rating (rating 0-100); higher = more pleasant
# Outline: as §1
# [3] = tested on: Homo sapiens (human subject panel, olfactory perception); test: perceived odor intensity rating (rating 0-100); higher = stronger perceived smell
# Outline: as §1
# [4] = odor dilution in paraffin oil: 1/1,000
# [5] = odor dilution in paraffin oil: 1/100,000
# [6] = odor dilution in paraffin oil: 1/10,000,000
# [7] = odor dilution in paraffin oil: 1/10
SMILES,"perceived odor familiarity rating [1, 4]","perceived odor familiarity rating [1, 5]","perceived odor pleasantness rating [2, 4]","perceived odor pleasantness rating [2, 5]","perceived odor intensity rating [3, 4]","perceived odor intensity rating [3, 5]","perceived odor familiarity rating [1, 6]","perceived odor pleasantness rating [2, 6]","perceived odor intensity rating [3, 6]","perceived odor familiarity rating [1, 7]","perceived odor pleasantness rating [2, 7]","perceived odor intensity rating [3, 7]"
CCOC(=O)CC(C)O (centres undefined) [ethyl-3-hydroxybutyrate],62 ± 31,37.4 ± 29,75.4 ± 18,42 ± 23,58.1 ± 32,38.3 ± 32,,,,,,
CCCC(O)CC(=O)OCC (centres undefined) [ethyl-3-hydroxyhexanoate],54.2 ± 28,40.1 ± 31,47.3 ± 27,54.4 ± 23,60.3 ± 24,25.1 ± 27,,,,,,
CCc1ccccc1 [ethylbenzene],51.4 ± 30,37 ± 33,35.2 ± 25,50.4 ± 19,75.5 ± 22,23 ± 24,,,,,,
C=CCc1ccc(O)c(OC)c1 [eugenol],73.6 ± 26,59.6 ± 32,67.6 ± 23,61.8 ± 25,74.6 ± 21,60.4 ± 26,,,,,,
CCCCCCC1CCC(=O)O1 (centres undefined) [gamma-decalactone],51.5 ± 32,46.4 ± 30,64.9 ± 27,61.4 ± 20,54 ± 28,33.2 ± 28,,,,,,
CC1CCC(=O)O1 (centres undefined) [gamma-valerolactone],38.9 ± 31,29.3 ± 28,51.4 ± 25,51.3 ± 22,26.9 ± 30,14.7 ± 20,,,,,,
CC(C)=CCC/C(C)=C/CO [geraniol],51.8 ± 31,57 ± 30,59.2 ± 25,62.1 ± 27,71.8 ± 24,42.3 ± 30,,,,,,
CC(=O)OC/C=C(\C)CCC=C(C)C [geranyl acetate],,36.4 ± 31,,54.4 ± 19,,16.3 ± 19,38.7 ± 32,47.9 ± 25,20.4 ± 24,,,
OCC(O)CO [glycerol],31.8 ± 30,,42.7 ± 25,,26.8 ± 29,,,,,33.6 ± 28,48.1 ± 31,31.2 ± 33
CCCCCCCO [heptanol (replicate)],51.9 ± 33,39.9 ± 29,48.5 ± 29,58 ± 23,72.2 ± 24,29.7 ± 30,,,,,,
CCCCCCCO [heptanol],50.3 ± 30,44.9 ± 31,52.7 ± 25,59.6 ± 23,62.7 ± 27,30.3 ± 28,,,,,,
CCCCCCCOC(C)=O [heptyl acetate],42.6 ± 31,,61.6 ± 22,,37.1 ± 31,,,,,55.8 ± 34,53.4 ± 32,82.2 ± 18
CCCCCCO [hexanol],58.7 ± 28,42.7 ± 27,58.2 ± 27,49.4 ± 26,61.5 ± 29,26 ± 27,,,,,,
CCCCCCOC(C)=O [hexyl acetate],58.2 ± 30,29.9 ± 26,63.1 ± 24,53.7 ± 23,58 ± 30,12.7 ± 17,,,,,,
CCCCCCOC(=O)CCC [hexyl butyrate],44.1 ± 30,35.8 ± 27,34.1 ± 25,43.9 ± 16,45.6 ± 34,19.4 ± 21,,,,,,
CC(C)CCO [isoamyl alcohol],50.8 ± 33,25.9 ± 21,51 ± 33,39.2 ± 25,63.5 ± 32,23.4 ± 26,,,,,,
CC(=O)OCC(C)C [isobutyl acetate],72.1 ± 24,39.2 ± 27,56 ± 28,50 ± 22,75.9 ± 22,33.5 ± 30,,,,,,
CC=Cc1ccc(OC(C)=O)c(OC)c1 [isoeugenol acetate],58.8 ± 28,,66.8 ± 25,,46.1 ± 28,,,,,57.1 ± 31,58.3 ± 26,57.6 ± 30
CC(=O)OCCC(C)C [isopentyl acetate],55.5 ± 32,51 ± 35,59.3 ± 25,65.2 ± 23,58.3 ± 31,45.9 ± 30,,,,,,
CC(=O)OC(C)C [isopropyl acetate (replicate)],46.2 ± 33,44.5 ± 32,41.3 ± 23,49.9 ± 25,49.4 ± 34,22.7 ± 22,,,,,,

SMILES,"perceived odor familiarity rating [1, 4]","perceived odor familiarity rating [1, 5]","perceived odor pleasantness rating [2, 4]","perceived odor pleasantness rating [2, 5]","perceived odor intensity rating [3, 4]","perceived odor intensity rating [3, 5]","perceived odor familiarity rating [1, 6]","perceived odor pleasantness rating [2, 6]","perceived odor intensity rating [3, 6]","perceived odor familiarity rating [1, 7]","perceived odor pleasantness rating [2, 7]","perceived odor intensity rating [3, 7]"
CC(=O)OC(C)C [isopropyl acetate],40.1 ± 30,47.6 ± 27,51.5 ± 21,50 ± 23,13.3 ± 20,20.2 ± 23,,,,,,
CC(C)CC(=O)O [isovaleric acid],,54.3 ± 33,,12.9 ± 19,,82 ± 20,48 ± 31,20.7 ± 22,58.5 ± 30,,,
CC1(C)C(=O)[C@@]2(C)CC[C@H]1C2 [l-fenchone],58.3 ± 31,33.1 ± 32,44.6 ± 28,49.3 ± 26,64.5 ± 31,9.45 ± 15,,,,,,
C=CC1(C)CCC(C(C)(C)O)O1 (centres undefined) [linalool oxide],42.8 ± 31,37 ± 28,46.5 ± 26,49.6 ± 19,44.4 ± 31,15.9 ± 19,,,,,,
COc1cccc(C=O)c1 [m-Anisaldehyde],47.4 ± 29,41.3 ± 30,53 ± 24,54 ± 25,48.7 ± 31,12.2 ± 19,,,,,,
CO [methanol],30.9 ± 25,,42.7 ± 22,,18 ± 24,,,,,37.9 ± 29,39.5 ± 23,35 ± 30
COC(=O)c1ccco1 [methyl 2-furoate],43.2 ± 29,39.5 ± 28,37.2 ± 24,48.7 ± 22,62.6 ± 25,33.8 ± 34,,,,,,
COC(C)=O [methyl acetate],29.6 ± 31,,36.4 ± 19,,23.9 ± 29,,,,,57.2 ± 28,26.9 ± 20,66.2 ± 28
COC(=O)c1ccccc1 [methyl benzoate],,35.1 ± 32,,45.9 ± 23,,36.1 ± 30,38 ± 32,47.8 ± 23,14.2 ± 22,,,
CCCCCC(=O)OC [methyl caproate],56.4 ± 31,36.3 ± 31,56.2 ± 29,51.8 ± 22,68.4 ± 26,30.5 ± 29,,,,,,
C/C=C/c1ccc(OC)c(OC)c1 [methyl isoeugenol],48.2 ± 31,30.1 ± 24,58.8 ± 26,39.5 ± 23,37.9 ± 31,25.4 ± 35,,,,,,
COC(=O)c1ccccc1O [methyl salicylate],63.9 ± 32,38.1 ± 32,60.8 ± 26,56.7 ± 21,71.9 ± 22,16.7 ± 22,,,,,,
CSC [methyl sulfide],43.7 ± 34,47.3 ± 32,33.6 ± 27,33.4 ± 27,56.4 ± 35,58.8 ± 32,,,,,,
CC(=O)c1c(C)c([N+](=O)[O-])c(C(C)(C)C)c([N+](=O)[O-])c1C [musk ketone],50.2 ± 27,,63.1 ± 25,,49.3 ± 32,,,,,53 ± 30,65.2 ± 23,48.1 ± 34
CCCCCCCCCO [nonanol],46.9 ± 29,35.6 ± 31,35.8 ± 24,42.9 ± 25,66.4 ± 26,28.5 ± 30,,,,,,
COc1ccccc1C=O [o-Anisaldehyde (replicate)],50.7 ± 31,46 ± 29,40.8 ± 28,40.3 ± 24,72.1 ± 23,36 ± 32,,,,,,
COc1ccccc1C=O [o-Anisaldehyde],45.8 ± 27,41.2 ± 27,32 ± 22,38 ± 22,70 ± 25,38.5 ± 27,,,,,,
Cc1ccccc1C=O [o-Tolualdehyde],58.9 ± 32,49.1 ± 31,52.7 ± 30,60.2 ± 24,78.1 ± 21,37.2 ± 31,,,,,,
Cc1ccccc1S [o-Toluenethiol],,54.8 ± 28,,24.8 ± 24,,72.8 ± 24,36.9 ± 24,47.9 ± 18,30.2 ± 31,,,
CCCCCCCC=O [octanal],50.5 ± 31,62.9 ± 29,33.1 ± 22,65 ± 25,66.7 ± 26,55 ± 28,,,,,,

SMILES,"perceived odor familiarity rating [1, 4]","perceived odor familiarity rating [1, 5]","perceived odor pleasantness rating [2, 4]","perceived odor pleasantness rating [2, 5]","perceived odor intensity rating [3, 4]","perceived odor intensity rating [3, 5]","perceived odor familiarity rating [1, 6]","perceived odor pleasantness rating [2, 6]","perceived odor intensity rating [3, 6]","perceived odor familiarity rating [1, 7]","perceived odor pleasantness rating [2, 7]","perceived odor intensity rating [3, 7]"
CCCCCCCCO [octanol],51.7 ± 33,38.3 ± 26,49.9 ± 28,46.2 ± 24,65.6 ± 26,25 ± 27,,,,,,
COc1ccc(C=O)cc1 [p-Anisaldehyde],54.5 ± 30,49.2 ± 32,60 ± 25,69 ± 21,71.2 ± 22,45.9 ± 31,,,,,,
CC(=O)Oc1ccc(C)cc1 [p-Tolyl acetate],59.6 ± 28,46.8 ± 31,47 ± 26,29 ± 25,72.6 ± 19,60.9 ± 28,,,,,,
Cc1ccc(O)cc1 [p-cresol],55 ± 33,54.1 ± 31,32.3 ± 29,31.6 ± 26,79 ± 20,68 ± 30,,,,,,
Cc1ccc(C(C)C)cc1 [para-cymene],55.8 ± 32,,47.4 ± 26,,66.4 ± 28,,,,,54.7 ± 32,37 ± 28,83.7 ± 15
CCCCCO [pentanol],46 ± 30,36.6 ± 28,23.9 ± 23,41.9 ± 26,68.4 ± 28,31.2 ± 32,,,,,,
CCCCCOC(C)=O [pentyl acetate],58.2 ± 33,45.2 ± 28,57.5 ± 32,57.6 ± 23,64.8 ± 30,42.6 ± 28,,,,,,
O=Cc1ccc2c(c1)OCO2 [piperonal],54.6 ± 30,,72 ± 20,,42.5 ± 29,,,,,64.5 ± 27,70.9 ± 23,69.3 ± 22
CCCO [propanol],30.3 ± 21,48.1 ± 32,49.7 ± 20,50.1 ± 21,28.7 ± 28,26.8 ± 28,,,,,,
CCC(=O)O [propionic acid (replicate)],,37.3 ± 30,,38.7 ± 20,,38.6 ± 32,44.1 ± 30,36.7 ± 25,7.72 ± 8.4,,,
CCC(=O)O [propionic acid],,35.3 ± 31,,39.5 ± 25,,34.4 ± 33,36.8 ± 25,45.2 ± 24,20.5 ± 27,,,
CCCOC(C)=O [propyl acetate],55.1 ± 30,41.6 ± 28,43.5 ± 24,49 ± 20,43.8 ± 36,24.5 ± 26,,,,,,
CCCOC(=O)CCC [propyl butyrate],52.5 ± 27,39.4 ± 27,42.5 ± 27,33.6 ± 25,64.7 ± 27,36.7 ± 31,,,,,,
CCCSCCC [propyl sulfide],,29.4 ± 28,,44.5 ± 28,,28.1 ± 31,34.7 ± 38,40.7 ± 25,11.6 ± 12,,,
c1cnccn1 [pyrazine],35.4 ± 27,36.8 ± 28,44.8 ± 21,39.6 ± 24,18.9 ± 22,38.5 ± 32,,,,,,
c1ccncc1 [pyridine],,33.7 ± 29,,46.8 ± 24,,21.5 ± 23,28 ± 28,54.2 ± 25,13 ± 21,,,
O=Cc1ccccc1O [salicylaldehyde],51.7 ± 31,39.9 ± 28,30.6 ± 26,39.5 ± 23,77.9 ± 19,53.5 ± 28,,,,,,
CC(C)(C)O [tert-butanol],34.7 ± 29,,58.8 ± 22,,24.8 ± 30,,,,,47.5 ± 32,44.9 ± 24,56 ± 32
Cc1ccc(C(C)C)c(O)c1 [thymol],55.8 ± 32,49.7 ± 29,41.8 ± 27,48.5 ± 24,71.1 ± 23,39.2 ± 30,,,,,,
